{"source": "patent US20250177376A1", "about": "“ALPHA 2 ADRENERGIC RECEPTOR BLOCKADE FOR THE TREATMENT OF C. DIFFICILE COLITIS” (University of Virginia Patent Foundation, priority 2022, published 2025)", "key": {"[1]": {"tested_on": "eosinophils, neutrophils, monocytes", "assay": "Infiltrating colonic immune cells in CDI mice by flow cytometry", "details": "for monocyte levels / neutrophil levels: 6-OHDA vs PBS/saline, desipramine vs 6-OHDA alone", "protocol": "To determine whether the sympathetic nervous system was necessary for a mounting of the inflammatory response, the infiltrating immune cell response in 6-OHDA-treated mice was measured by flow cytometry."}, "[2]": {"tested_on": "C. difficile infection (CDI)", "assay": "Mouse CDI model: survival, weight loss, clinical score", "type": "in vivo, mice", "details": "for clinical score versus ORA-PLUS vehicle: oral gavage days -1, 0, 1, scores at days 2-8"}, "C. difficile [3]": {"tested_on": "C. difficile", "assay": "C. difficile counts (CFU) from cecal contents", "type": "in vivo", "details": "cecal contents at 18 hours post-infection", "description": "C. difficile counts were quantified from cecal contents at 18 hours post-infection. Cecal contents were resuspended by mass in anaerobic PBS. […] Colony counts were made manually."}, "C. difficile [4]": {"tested_on": "C. difficile", "assay": "C. difficile colonization in cecal contents by GDH ELISA", "type": "in vivo", "details": "cecal contents 2 days post-infection", "description": "CDI colonization levels were also determined in PBS-treated mice (negative control) and mice treated with RX 821002. Briefly, C. difficile colonization in cecal contents of mice sacrificed 2 days post-infection was determined by a GDH ELISA from […], Inc. (Blacksburg, Virginia, United States of America; Catalog No. TL5025). Prior to the ELISA, cecal contents were resuspended in PBS by mass. The GDH ELISA was performed according to the manufacturer's instructions."}, "toxin A/B": {"tested_on": "toxin A/B", "assay": "Toxin A/B ELISA of cecal contents", "type": "in vivo, C. difficile", "details": "cecal contents 2 days post-infection", "description": "ADRA2A inhibition with RX 821002 was also tested for any affects on toxin A/B levels in mice. Briefly, […] in cecal contents of mice sacrificed 2 days post-infection was determined by a Toxin A/B ELISA from TECHLAB, Inc. (Catalog No. TL5025). Prior to the ELISA, cecal contents were resuspended in PBS by mass. The Toxin A/B ELISA was performed according to the manufacturer's instructions. Mice were treated with RX 821002 and toxin A/B levels in CDI cecal content were determined."}, "cytokines": {"tested_on": "cytokines", "assay": "Luminex 32-plex cytokine levels in cecal tissue of CDI mice", "details": "IL-2, IL-4, IL-10, IL-12 (p40, p70), IL-15, MIP-1a, MIP-1b, LIX, VEGF, IL-5, GM-CSF, M-CSF, G-CSF, Eotaxin, IL-1b, IL-6, LIF, IP-10, KC, MCP-1, MIP2, MIG, IFNγ, IL-1a, IL-9, TNFa", "protocol": "The levels of numerous cytokines were tested in PBS-treated mice and mice administered 6-OHDA."}, "[5]": {"details": "CDI mouse model, 6-OHDA 80 mg/kg i.p., propranolol, SR 59230A, RX 821002 10 mg/kg i.p., nepicastat oral gavage"}}, "note": "Values joined by “and” are separate entries in the source; they are usually repeats but may differ in a detail not shown here. Equal values may be shown once. “Also recorded” adds a separate entry of the source. Where a name gives a salt, the structure may show the parent alone.", "data": [{"molecule": "CNCCCN1c2ccccc2CCc2ccccc21", "note": "[desipramine, 3-(10,11-dihydro-5H-dibenzo[b,f]azepin-5-yl)-N-methylpropan-1-amine]", "values": [{"measurement": "monocyte levels", "setting": "[1]", "value": "statistically significant elevation"}, {"measurement": "neutrophil levels", "setting": "[1]", "value": "negated this reduction"}, {"measurement": "effect on survival / CDI-induced mortality versus negative control", "setting": "[2]; mouse, in vivo", "value": "prevented the protective effect of 6-OHDA on the incidence of mortality"}]}, {"molecule": "CCc1ccccc1OC[C@@H](O)CN[C@H]1CCCc2ccccc21", "note": "[SR 59230A, (2S)-1-(2-ethylphenoxy)-3-[[(1S)-1,2,3,4-tetrahydronaphthalen-1-yl]amino]propan-2-ol]", "values": [{"measurement": "effect on survival / CDI-induced mortality versus negative control", "setting": "[2]; [5]", "value": "increased the incidence of mortality; also recorded: exacerbated CDI disease progression"}, {"measurement": "mice dead prior to day 3 post-infection", "setting": "[2]; CDI mouse model, SR 59230A 10 mg/kg i.p.", "value": 100, "unit": "%"}]}, {"molecule": "COC1(C2=NCCN2)COc2ccccc2O1", "note": "(centres unmarked) [RX 821002, 2-(3-methoxy-2H-1,4-benzodioxin-3-yl)-4,5-dihydro-1H-imidazole]", "values": [{"measurement": "C. difficile burden, colony-forming units (CFU)/mg/ml, versus PBS", "setting": "C. difficile [3]", "value": "no difference"}, {"measurement": "effect on survival / CDI-induced mortality versus negative control", "setting": "[2]; [5]", "value": "statistically significant difference in percent survival; also recorded: drastically reduced; also recorded: ameliorated CDI induced mortality; also recorded: protection"}, {"measurement": "CDI colonization (GDH ELISA) versus PBS", "setting": "C. difficile [4]", "value": "no effect"}, {"measurement": "toxin A/B levels in CDI cecal content", "setting": "toxin A/B", "value": "reduced"}]}, {"molecule": "COC(=O)[C@@H]1[C@H]2C[C@H]3c4[nH]c5ccccc5c4CCN3C[C@@H]2CC[C@@H]1O", "note": "[yohimbine, methyl(1S,15R,18S,19R,20S)-18-hydroxy-1,3,11,12,14,15,16,17,18,19,20,21-dodecahydroyohimban-19-carboxylate]", "values": [{"measurement": "effect on survival / CDI-induced mortality versus negative control", "setting": "[2]; [5]", "value": "statistically significant amelioration of CDI induced mortality"}]}, {"molecule": "NCCc1cc(O)c(O)cc1O", "note": "[6-OHDA, 6-hydroxydopamine]", "values": [{"measurement": "monocyte levels", "setting": "[1]", "value": "not significantly reduced"}, {"measurement": "neutrophil levels", "setting": "[1]", "value": "significantly reduced; also recorded: less representative of the colonic immune cells"}, {"measurement": "eosinophil levels", "setting": "[1]; vs PBS/Saline", "value": "did not reach statistical significance"}, {"measurement": "effect on survival / CDI-induced mortality versus negative control", "setting": "[2]; mouse, in vivo", "value": "strikingly ameliorated the incidence of mortality; also recorded: complete protection from death"}, {"measurement": "mice still alive through day 5 post-infection", "setting": "[2]; mouse, in vivo", "value": 100, "unit": "%"}, {"measurement": "weight loss versus control", "setting": "[2]; mouse, in vivo", "value": "significantly (p<0.001) reduced; also recorded: strikingly ameliorated"}, {"measurement": "mice still alive at day 7 post-infection", "setting": "[2]; mouse, in vivo, ip, 80 mg/kg", "value": "90% and 80%"}, {"measurement": "cytokine levels versus PBS-treated mice", "setting": "cytokines", "value": "statistically significantly reduced; also recorded: lower amounts of cytokines"}, {"measurement": "cytokine levels versus PBS-treated mice", "setting": "cytokines; listed as 6-hydroxydopamine", "value": "block in pro-inflammatory cytokine response"}]}, {"molecule": "NCc1c[nH]c(=S)n1[C@H]1CCc2c(F)cc(F)cc2C1", "note": "[nepicastat hydrochloride, 5-(Aminomethyl)-1-[(2S)-5,7-difluoro-1,2,3,4-tetrahydro-2-naphthalenyl]-1,3-dihydro-2H-imidazole-2-thione]", "values": [{"measurement": "effect on survival / CDI-induced mortality versus negative control", "setting": "[2]; [5]", "value": "protected against CDI-induced mortality; also recorded: significantly improved survival"}, {"measurement": "effect on survival / CDI-induced mortality versus negative control", "setting": "[2]; CDI mouse model, 6-OHDA 80 mg/kg i.p., propranolol, SR 59230A, RX 821002 10 mg/kg i.p., nepicastat oral gavage, listed as nepicastat", "value": "greatly reduced the incidence of mortality"}, {"measurement": "clinical score versus ORA-PLUS vehicle", "setting": "[2]; CDI mouse model", "value": "statistically significantly lower"}, {"measurement": "clinical score versus ORA-PLUS vehicle", "setting": "[2]; CDI mouse model, listed as Nepicastat", "value": "significantly better clinical scores"}]}]}
